Test results reported in patent publication US10757937B2, “Sulfonamides that activate ABA receptors” (The Regents of the University of California, priority 2014, dated 2020).
Read-outs that look alike come from different tables or passages of the source.

Experiments:
PYL8 = target: T1, PYL8 (Arabidopsis thaliana, UniProt Q9FGM1); assay: receptor-mediated PP2C (HAB1) inhibition in vitro assay; format: biochemical; details: compound at 25 μM; control without agonist = 100%
T1 construct: 6X-His; made in house; host or cells: E. coli BL21[DE3]pLysS
T1 sequence (Q9FGM1 1-188): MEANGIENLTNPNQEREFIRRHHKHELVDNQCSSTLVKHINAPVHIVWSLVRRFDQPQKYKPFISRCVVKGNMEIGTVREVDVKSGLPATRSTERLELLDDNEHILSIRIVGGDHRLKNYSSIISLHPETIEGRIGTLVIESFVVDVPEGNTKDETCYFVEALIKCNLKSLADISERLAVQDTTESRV
T1 sequence (Q9CAJ0 23-511 partner): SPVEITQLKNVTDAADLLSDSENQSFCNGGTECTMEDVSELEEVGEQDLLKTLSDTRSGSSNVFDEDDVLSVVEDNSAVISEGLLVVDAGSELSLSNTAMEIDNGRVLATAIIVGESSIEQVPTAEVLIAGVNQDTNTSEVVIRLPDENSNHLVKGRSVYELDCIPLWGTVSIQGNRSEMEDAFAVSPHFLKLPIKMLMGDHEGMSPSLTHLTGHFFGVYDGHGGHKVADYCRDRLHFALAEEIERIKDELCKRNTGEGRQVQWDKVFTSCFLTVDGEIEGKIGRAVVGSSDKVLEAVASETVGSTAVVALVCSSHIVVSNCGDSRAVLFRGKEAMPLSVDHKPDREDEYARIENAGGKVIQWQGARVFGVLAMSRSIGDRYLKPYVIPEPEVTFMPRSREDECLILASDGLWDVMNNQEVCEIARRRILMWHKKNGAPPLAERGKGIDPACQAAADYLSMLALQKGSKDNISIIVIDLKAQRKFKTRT
Description: (§1) A family of 62 structurally related N-acyl sulfonamides (Tables I-V) were tested for ABA agonist activity using multiple receptor-mediated PP2C inhibition in vitro assays (Park et al., 2009). […] The constructs utilized for protein expression have been previously described (Okamoto et al. 2013). For constructs encoding 6X-His-fusion proteins (all receptors except PYL11), the coding sequences were of the receptors were cloned in the vector pET28, expressed in BL21[DE3]pLysS E. coli host cells at 18° C. overnight, and subsequently purified from sonicated lysates using Ni-NTA agarose (Qiagen, USA), according to the manufacturer's instructions. PYL11 was constructed as a maltose binding protein fusion in the vector pMAL-c, expressed in BL21┌DE3┐pLysS host cells and purified using amylose resin (New England Biolabs) as described by the manufacturer. Recombinant GST-HAB1 was expressed and purified as described previously (Park et al., 2009). PP2C activity assays were conducted using the fluorogenic phosphatase substrate 4-methylumbelliferyl-phosphate. Recombinant receptors and HAB1 were used to examine ligand-induced PP2C inactivation in response to multiple test compounds. Enzyme inhibition assays were conducted using the following assay conditions: 50 nM GST-PP2C, 100 mM Tris-OAc (pH 7.9), 100 mM NaCl, 1 mM MnCl2, 1% β-mercaptoethanol. […] Because of this, the ratio of each receptor used in the PP2C-inhibitions assays was established empirically as the minimum fold-excess of receptor required to elicit maximal PP2C inhibition at a saturating ABA concentration (10 μM).
(§2) Based on this criterion, we used a ratio of 2:1 receptor in the assays described herein.
(§3) Using the above assay conditions, compounds were tested at 25 μM for agonist activity on PYL4, PYL5, PYL8 and PYL9. […] Consequently, a subset of the compounds was tested at multiple concentrations against 11 receptors so that IC50 values and receptor selectivity profiles could be examined. […] Thus, the N-acylsulfonamide agonists disclosed are selective for monomeric receptors.
(§4) Additional compounds were tested for biological activity following the procedures of Example 1 with minor modifications.
(§5) For these in vitro receptor assays, the compounds listed were tested in in vitro PP2C inhibition assays with 50 uM of the test compound except for ABA (10 uM). IC50s were calculated from dose curves, but only for selected compounds.

PYL5 = target: T2, PYL5 (Arabidopsis thaliana, UniProt Q9FLB1); assay: as above; format: biochemical; details: compound at 25 μM; control without agonist = 100%
T2 construct: 6X-His; made in house; host or cells: E. coli BL21[DE3]pLysS
T2 sequence (Q9FLB1 1-203): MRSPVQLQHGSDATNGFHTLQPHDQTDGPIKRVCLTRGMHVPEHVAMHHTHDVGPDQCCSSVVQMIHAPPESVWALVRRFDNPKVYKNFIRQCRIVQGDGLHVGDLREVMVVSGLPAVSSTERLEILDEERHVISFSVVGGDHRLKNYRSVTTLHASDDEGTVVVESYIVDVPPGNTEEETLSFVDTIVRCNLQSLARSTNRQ
T2 sequence (Q9CAJ0 23-511 partner): T1 sequence (Q9CAJ0 23-511 partner)
Description: as §1, §2, §3, §4, §5

PYL9 = target: T3, PYL9 (Arabidopsis thaliana, UniProt Q84MC7); assay: as above; format: biochemical; details: compound at 25 μM; control without agonist = 100%
T3 construct: 6X-His; made in house; host or cells: E. coli BL21[DE3]pLysS
T3 sequence (Q84MC7 1-187): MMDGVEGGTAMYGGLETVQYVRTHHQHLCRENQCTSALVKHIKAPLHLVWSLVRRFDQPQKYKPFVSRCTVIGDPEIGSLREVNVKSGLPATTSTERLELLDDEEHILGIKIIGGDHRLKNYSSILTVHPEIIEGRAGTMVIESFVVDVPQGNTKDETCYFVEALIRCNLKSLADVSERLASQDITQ
T3 sequence (Q9CAJ0 23-511 partner): T1 sequence (Q9CAJ0 23-511 partner)
Description: as §1, §2, §3, §4, §5

PYL4 = target: T4, PYL4 (Arabidopsis thaliana, UniProt O80920); assay: as above; format: biochemical; details: compound at 25 μM; control without agonist = 100%
T4 construct: 6X-His; made in house; host or cells: E. coli BL21[DE3]pLysS
T4 sequence (O80920 1-207): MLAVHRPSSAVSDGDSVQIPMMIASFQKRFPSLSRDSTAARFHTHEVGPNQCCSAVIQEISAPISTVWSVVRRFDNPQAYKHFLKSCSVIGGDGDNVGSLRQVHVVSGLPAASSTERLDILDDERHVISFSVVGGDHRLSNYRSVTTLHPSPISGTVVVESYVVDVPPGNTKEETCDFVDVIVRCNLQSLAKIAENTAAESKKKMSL
T4 sequence (Q9CAJ0 23-511 partner): T1 sequence (Q9CAJ0 23-511 partner)
Description: as §1, §2, §3, §4, §5

[1] = test system: Arabidopsis seed germination and hypocotyl growth; assay: Arabidopsis seed germination and hypocotyl growth; format: in vivo; details: − = none; for Hypocotyl Growth Inhibition: lowest concentration that inhibited hypocotyl growth in wells where seeds germinated; for minimal effective concentration: Table VIII, tested at 10 or 50 μM, lowest inhibiting concentration
Description: We germinated seeds from wild type on ½× strength Murashige and Skoog salts growth medium containing either 10 or 50 μM for all 62 compounds as well as 1 μM (+)-ABA and mock controls. […] To investigate if the any of the compounds are sufficient to control vegetative ABA responses, we treated three week old Arabidopsis plants with aqueous solutions containing 0.02% Silwet and either 50 μM of selected N-acylsulfonamides, 50 μM ABA or 0.1% DMSO (the carrier solvent for the compounds tested). The leaf temperatures were subsequently examined using a thermal imaging camera 24 hours after treatment. It is well known that ABA-induced guard cell closure reduces transpiration, which leads to increases in leaf temperatures. It has been estimated that a 1° C. increase in leaf temperature correlates with a decrease in transpiration rates by approximately 50% (Sirault et al., 2009). Since guard cell aperture is the primary determinant of transpiration rates, thermal imaging is a useful way to indirectly infer relative transpiration rates and, indirectly, relative degrees of guard cell opening at the whole plant level.
as §4
For the germination inhibition experiment, the compounds were tested at 10 and 50 uM. The amounts shown are the lowest of the two concentrations that either inhibited germination or hypocotyl growth in wells where seeds germinated.
For the germination test, the compounds were tested at 1, 5, 10, 25 and 50 uM. The amounts shown are the lowest of the concentrations that either inhibited germination or hypocotyl growth in the wells where seeds germinated.

[2] = Germination Inhibition II, tested at 10 and 50 uM
[3] = read-out: Hypocotyl Growth Inhibition

PP2C Activity (25 μm) PYL8 (PYL8) | PP2C Activity (25 μm) PYL5 (PYL5) | PP2C Activity (25 μm) PYL9 (PYL9) | PP2C Activity (25 μm) PYL4 (PYL4) | remaining activity at 25 µM (PYL8) | remaining activity at 25 µM (PYL5) | remaining activity at 25 µM (PYL9) | remaining activity at 25 µM (PYL4) | SMILES | Hypocotyl Growth Inhibition [1, 2] | minimal effective concentration [1, 3] | Germination Inhibition ([1]; Germination Inhibition II, tested at 10 and 50 uM, lowest of the two concentrations that inhibited) | minimal effective concentration ([1]; ABA at 1 μM, read-out: Germination Inhibition)
89% | 106% | 83% | 96% |  |  |  |  | CC(C)(C(=O)NS(=O)(=O)Cc1ccccc1C#N)c1ccccc1 [Compound 1] | 50 µM | 50 µM |  | 
69% | 23% | 47% | 89% |  |  |  |  | CC(C)(C(=O)NS(=O)(=O)Cc1ccc(C#N)cc1)c1ccc(Br)cc1 [Compound 2] | 10 µM | 10 µM | 50 µM | 50 µM
59% | 106% | 36% | 97% |  |  |  |  | CC(C)(C(=O)NS(=O)(=O)Cc1ccc(F)cc1)c1ccccc1 [Compound 4] | 50 µM | 50 µM |  | 
62% | 44% | 58% | 93% |  |  |  |  | CC(C)(C(=O)NS(=O)(=O)Cc1ccc(C#N)cc1)c1ccc(C(F)(F)F)cc1 [Compound 11] |  |  |  | 
108% | 103% | 108% | 97% |  |  |  |  | CC(C)COc1ccc(C(C)(C)C(=O)NS(=O)(=O)Cc2ccc(C#N)cc2)cc1 [Compound 14] |  |  |  | 
98% | 89% | 102% | 89% |  |  |  |  | COc1ccc(C(C)(C)C(=O)NS(=O)(=O)Cc2ccc(C#N)cc2)cc1OC [Compound 21] |  |  |  | 
72% | 95% | 49% | 96% |  |  |  |  | CC(C)(C(=O)NS(=O)(=O)Cc1ccc2cccnc2c1)c1ccccc1 [Compound 55] |  |  |  | 
106% | 105% | 108% | 94% |  |  |  |  | CC(=O)N1CCC(C(=O)NS(=O)(=O)Cc2ccc(C#N)cc2)(c2ccccc2)CC1 [Compound 56] |  |  |  | 
56% | 100% | 39% | 91% |  |  |  |  | N#Cc1ccc(CS(=O)(=O)NC(=O)C2(c3cccc(F)c3)CCOCC2)cc1 [Compound 57] |  |  |  | 
84% | 83% | 83% | 96% |  |  |  |  | N#Cc1ccc(CS(=O)(=O)NC(=O)C2(c3cccc(Cl)c3)CCOCC2)cc1 [Compound 58] |  |  |  | 
97% | 65% | 98% | 92% |  |  |  |  | N#Cc1ccc(CS(=O)(=O)NC(=O)C2(c3ccc(C(F)(F)F)cc3)CCOCC2)cc1 [Compound 59] |  |  |  | 
101% | 70% | 101% | 90% |  |  |  |  | N#Cc1ccc(CS(=O)(=O)NC(=O)C2(c3ccccc3)CCN(S(=O)(=O)c3ccccc3)CC2)cc1 [Compound 60] |  |  |  | 
 |  |  |  | 100% | 103% | 100% | 98% | O=C(NS(=O)(=O)Cc1cccc2cccnc12)C1(c2ccccc2)CC1 [Compound 62] |  |  |  | 

SMILES | PP2C Activity (25 μm) PYL8 (PYL8) | PP2C Activity (25 μm) PYL5 (PYL5) | PP2C Activity (25 μm) PYL9 (PYL9) | PP2C Activity (25 μm) PYL4 (PYL4) | remaining activity at 25 µM (PYL8) | remaining activity at 25 µM (PYL5) | remaining activity at 25 µM (PYL9) | remaining activity at 25 µM (PYL4) | Hypocotyl Growth Inhibition [1, 2] | minimal effective concentration [1, 3] | Germination Inhibition ([1]; Germination Inhibition II, tested at 10 and 50 uM, lowest of the two concentrations that inhibited) | minimal effective concentration ([1]; ABA at 1 μM, read-out: Germination Inhibition)
CCc1ccc(C(C)(C)C(=O)NS(=O)(=O)Cc2ccc(C#N)cc2)cc1 [Compound 20] | 104% | 88% | 98% | 95% |  |  |  |  |  |  |  | 
N#Cc1ccc(CS(=O)(=O)NC(=O)C2(c3ccc(Br)cc3)CCC2)cc1 [Compound 31] | 80% | 77% | 74% | 97% |  |  |  |  |  |  |  | 
Cc1cc(C)cc(C2(C(=O)NS(=O)(=O)Cc3ccc(C#N)cc3)CC2)c1 [Compound 36] | 98% | 34% | 94% | 91% |  |  |  |  |  |  |  | 
CC(C)(C)c1ccc(C2(C(=O)NS(=O)(=O)Cc3ccc(C#N)cc3)CC2)cc1 [Compound 40] | 106% | 101% | 103% | 92% |  |  |  |  |  |  |  | 
N#Cc1ccc(CS(=O)(=O)NC(=O)C2(c3ccc(C(F)(F)F)cc3)CC2)cc1 [Compound 45] | 74% | 30% | 53% | 93% |  |  |  |  |  |  |  | 
N#Cc1ccc(CS(=O)(=O)NC(=O)C2(c3ccccc3F)CC2)cc1 [Compound 47] | 86% | 28% | 75% | 95% |  |  |  |  |  |  |  | 
CCOc1ccc(C2(C(=O)NS(=O)(=O)Cc3ccc(C#N)cc3)CC2)cc1 [Compound 52] | 91% | 99% | 98% | 94% |  |  |  |  |  |  |  | 
